Columns and labels:
Type in all cases: cell-based
HEK293 cells (rAAV8-OTC) [1] = assay: Effect of additional compounds on rAAV production with HEK293 cells, 24 deep-well plates; settings: for rAAV titers (summary statement): HEK293 cells
Description: In this example, the effect of compounds other than niacinamide on rAAV production in HEK293 cells was examined. The compounds analyzed in this example included niacin, methyl nicotinate, myo-inositol, pantothenic acid, pyridoxine, choline, thiamine, glucosamine, caffeine, n-acetyl glucosamine, and thymidine.
The experiment was run in 24 deep-well plates using the same cells as described in Example 5 under similar transfection and culture conditions. The concentrations of each compound tested were 1 mM, 3 mM, and 9 mM. […] None of the other compounds tested provided a significant benefit to rAAV titer at any of the three concentrations tested.

[2] = test system: HeLa clones (AAVrh10-FIX, AAV8-G6Pase, AAVhu37-FVIII); assay: Effect of niacinamide on rAAV production with Clade E HeLa clones; settings: between 1 mM and 5 mM niacinamide; all four clones
Protocol: (§1) In this example, the effect of various concentrations of niacinamide ranging from 0.1 mM to 40 mM on rAAV production was tested in a variety HeLa producer cell lines. The experiment was run in a 24 deep-well plate culture system with a 3 mL working volume, a seeding density of 0.2×10^6 cells in cell culture production medium, and an Ad5 multiplicity of infection (MOI) of 200 vp/cell. […] The capsid serotypes included in this analysis were AAV8, AAV9, rh10, and hu37.
Four different HeLa clones were tested using the conditions described in Example 1. FIG. 4A-D show the rAAV titer (GC/mL) per varying niacinamide concentrations for Clone 1 (AAVrh10-FIX) follow-up supernatant, clone 2 (AAV8-G6Pase) supernatant, Clone 3 (AAV8-G6Pase) wide range with no supplement, and Clone 4 (AAVhu37-FVIII) wide range no supplement suspension (i.e., Triton-lysed sample), respectively.

HeLa producer cells = assay: Effect of niacinamide concentration on rAAV production, HeLa producer cell lines, 24 deep-well plate; settings: for normalized volumetric rAAV titer: Clade E and F rAAV
Protocol: as §1

[3] = test system: HeLa producer cell line clones (AAV9-ATP7B); assay: Effect of niacinamide on rAAV production with Clade F HeLa clones, 2 L bioreactor; settings: 3 mM niacinamide, both clones
Protocol: In this example, the effect of 3 mM niacinamide on two HeLa producer cell line clones expressing recombinant Clade F AAV encoding a truncated ATP7B transgene (AAV9-ATP7B) was examined in a 2 L bioreactor.

[4] = test system: HeLa producer cell line (AAVrh10-FIX); assay: Effect of vessel scale (24-DW vs 100 mL shake flask) with niacinamide on rAAV production; settings: scale removed as a factor; all niacinamide concentrations
Protocol: In this example, the effect of scale using two common vessels (3 mL-deep well (“24-DW”) and 100 mL shake flask (“Flasks”)) with niacinamide on rAAV production was tested. The analysis was conducted using a HeLa producer cell line capable of producing a Clade E rAAV encoding a Factor IX transgene (AAVrh10-FIX). FIG. 3 depicts a bar graph showing rAAV titer (GC/mL) at varying niacinamide concentrations at the different scales. […] The scale and interaction factors were insignificant (p=0.3915 and p=0.1353 respectively).

HEK293 cells (rAAV8-OTC) [5] = assay: Effect of niacinamide concentration on rAAV production with HEK293 cells
Protocol: In this example, the effect of various concentrations of niacinamide ranging from 0.03 mM to 30 mM on rAAV production was tested with HEK293 cells. The experiment was run in 30 mL flasks using a transfection density of 1.3×10^6 to 2.0×10^6 cells/mL. The HEK293 cells used in this experiment were transfected with plasmids enabling the production of rAAV8 encoding an ornithine transcarbamylase (rAAV8-OTC).

[6] = niacinamide between 1 mM and 10 mM

## C[N+](C)(C)CCO [choline]
HEK293 cells (rAAV8-OTC) [1]; 3 mM compound
  increase in titer: 65%
HEK293 cells (rAAV8-OTC) [1]
  rAAV titers (summary statement): can boost rAAV titers

## COC(=O)c1cccnc1 [methyl nicotinate]
HEK293 cells (rAAV8-OTC) [1]; 3 mM compound
  increase in titer: 42%
HEK293 cells (rAAV8-OTC) [1]
  rAAV titers (summary statement): can boost rAAV titers

## OC1C(O)C(O)C(O)C(O)C1O (centres unmarked) [myo-inositol]
HEK293 cells (rAAV8-OTC) [1]; 3 mM compound
  increase in titer: approximately 20%
HEK293 cells (rAAV8-OTC) [1]; 9 mM compound
  increase in titer: approximately 20%
HEK293 cells (rAAV8-OTC) [1]
  rAAV titers (summary statement): can boost rAAV titers

## O=C(O)c1cccnc1 [niacin]
HEK293 cells (rAAV8-OTC) [1]; 1 mM compound
  increase in titer: 20%
HEK293 cells (rAAV8-OTC) [1]
  rAAV titers (summary statement): can boost rAAV titers

## NC(=O)c1cccnc1 [niacinamide]
HEK293 cells (rAAV8-OTC) [1]; niacinamide versus the 11 compounds of Example 6
  level of benefit to rAAV titer compared with the other compounds: substantially and surprisingly superior to the other 11 compounds examined
[2]
  rAAV titer (GC/mL): titer increase
HeLa producer cells; fit of normalized titer data points, FIG. 2
  niacinamide concentration of predicted maximum rAAV titer (3rd-order polynomial fit): 5 mM
HeLa producer cells; niacinamide 0.1 mM to 10 mM, relative to no niacinamide
  normalized volumetric rAAV titer: Increases in rAAV titer
HeLa producer cells; [6]
  normalized volumetric rAAV titer (GC/mL), 3rd-order polynomial fit: Significant increases in rAAV titer
  normalized volumetric rAAV titer: most significant increases
[3]
  rAAV titer: significant titer increase
[4]
  rAAV titer, Dunnett's Test: significance at all concentrations
HEK293 cells (rAAV8-OTC) [5]; 0.3 mM niacinamide, 30 mL flasks
  rAAV titer: increases in titer
HEK293 cells (rAAV8-OTC) [5]; 3 mM niacinamide, 30 mL flasks
  rAAV titer: increases in titer
HEK293 cells (rAAV8-OTC) [5]; repeat run at 2 L bioreactor scale (data not shown)
  rAAV titer: increase in titer
